Experimental data published in patent US9546167B2, “Radiosynthesis of tau radiopharmaceuticals” (The General Hospital Corporation, priority 2013, dated 2017).

Legend:
[1] = system: paired helical filaments of tau (PHF-tau); details: cited from earlier work
[2] = stability of formulated product by HPLC and radio-TLC, clarity and pH; type: physicochemical; details: over a period of 6 hours
Experimental: (§1) Three consecutive productions of [^18F]T807 were carried out to validate this radiopharmaceutical for human use. […] Due to the increased lipophilicity of 1b, an additional HPLC analysis was performed using an X-Select HSS T3 column (4.6×150 mm, 3.5 μm) and eluted with 50% CH3OH/H2O (pH 2 adjusted with HCl) with a flow rate of 1.2 mL/min, monitored at λ=254 nm. Radio-TLC was performed to verify the radiochemical purity of [^18F]T807 using silica gel plates and 80:20 (v/v) CH2Cl2:CH3OH mobile phase. Radio-TLC confirmed high radiochemical purity (>97%). […] The half-life was verified to be 109.7 minutes, as determined by a dose calibrator, and no long lived isotopes were observed (5 days), as determined by analysis on a HPGE detector after ^18F-decay. Formulated [^18F]T807 was free of pyrogens (Charles River Endosafe® PTS), sterile, and passed the Kryptofix® spot test (<50 μg/mL). […] Using this new methodology, [^18F]T807 was successfully validated for human PET studies, meeting all FDA and USP requirements for a PET radiopharmaceutical.

[3] = lipophilicity of precursor (HPLC analysis remark); type: physicochemical; details: qualitative
Experimental: as §1

[4] = solubility of precursor in reaction / organic solvents; type: physicochemical
Experimental: The uncorrected radiochemical yield (RCY) of [^18F]T807 was 14±3% (n=3) and the total synthesis time was 60 minutes, including formulation. The product was prepared consistently with >95% radiochemical purity and the specific activity at the end of synthesis was 216±60 GBq/μmol (5837±1621 mCi/μmol). […] Therefore, the precursor could be added remotely to the reaction vial with minimal volume and eliminated the possibility of the precursor precipitating out of solution before use. Moreover, the fluorination condition simultaneously removed the t-BOC protecting group so there was no need for an additional deprotection step. Secondly, without being bound by any theory, it is thought that the protecting group may also be responsible for the higher radiochemical yields by inhibiting side reactions with the —NH of the indole moiety.

[5] = system: hyperphosphorylated tau fibrillar aggregates; details: PET imaging, human subjects; cited from earlier work

[18F]c1ccc(-c2ccc3c(c2)[nH]c2ccncc23)cn1 [[^18F]T807]
potency in vitro for paired helical filaments of tau (PHF-tau) [1]: excellent | selectivity in vitro for PHF-tau over Aβ-plaques [1]: excellent | pH [2]: 5.5 | stability as measured by HPLC and radio-TLC [2]: maintained stability

CC(C)(C)OC(=O)n1c2ccncc2c2ccc(-c3ccc([N+](=O)[O-])nc3)cc21 [Compound 1b, tert-butyl 7-(6-nitropyridin-3-yl)-5H-pyrido[4,3-b]indole-5-carboxylate]
lipophilicity [3]: increased | solubility in the reaction solvent (DMSO) ([4]; compared with 1a): increased

[18F]CCC1CCN(c2ccn3c(n2)nc2ccccc23)CC1 [[^18F]T808, reference compound]
potency in vitro for paired helical filaments of tau (PHF-tau) [1]: excellent | selectivity in vitro for PHF-tau over Aβ-plaques [1]: excellent

O=[N+]([O-])c1ccc(-c2ccc3c(c2)[nH]c2ccncc23)cn1 [Compound 1a, 7-(6-nitropyridin-3-yl)-5H-pyrido[4,3-b]indole, reference compound]
solubility in most organic solvents [4]: only sparingly soluble

CC(=C(C#N)C#N)c1ccc2cc(N(C)CCF)ccc2c1 [[^18F]FDDNP]
distinction between amyloid-β plaques and tau [5]: does not distinguish | imaging of hyperphosphorylated tau fibrillar aggregates [5]: effective
